Data: ChEMBL document CHEMBL5154783, “Design, synthesis, and evaluation of novel 3-thiophene derivatives as potent fungistatic and fungicidal reagents based on a conformational restriction strategy” (Eur J Med Chem, 2022)
Values after ≈ are worked out from the molar mass of the structure shown.

Experiments:
Assay type in all cases: functional
Candida albicans [1] = test: Antifungal activity against Candida albicans ATCC SC5314 assessed as fungal growth inhibition by CLSI based serial microbroth dilution method
Candida albicans [2] = test: Antifungal activity against Candida albicans CPCC400616 assessed as fungal growth inhibition by CLSI based serial microbroth dilution method
Candida tropicalis = test: Antifungal activity against Candida tropicalis CGMCC 2.3739 assessed as fungal growth inhibition by CLSI based serial microbroth dilution method
Cryptococcus neoformans = test: Antifungal activity against Cryptococcus neoformans CGMCC 2.3161 assessed as fungal growth inhibition by CLSI based serial microbroth dilution method
Candida parapsilosis = test: Antifungal activity against Candida parapsilosis GIM 2.190 assessed as fungal growth inhibition by CLSI based serial microbroth dilution method; settings: Lodderomyces parapsilosis
Nakaseomyces glabratus = test: Antifungal activity against Candida glabrata clinical isolate assessed as fungal growth inhibition by CLSI based serial microbroth dilution method
Pichia kudriavzevii = test: Antifungal activity against Candida krusei GIM 2.1 assessed as fungal growth inhibition by CLSI based serial microbroth dilution method
Aspergillus fumigatus = test: Antifungal activity against Aspergillus fumigatus CGMCC 3.7795 assessed as fungal growth inhibition by CLSI based serial microbroth dilution method

Row | SMILES | MIC (Candida albicans [1]) | MIC (Candida albicans [2]) | MIC (Candida tropicalis) | MIC (Cryptococcus neoformans) | MIC (Candida parapsilosis) | MIC (Nakaseomyces glabratus) | MIC (Pichia kudriavzevii) | MIC (Aspergillus fumigatus)
1 | Clc1cccc(CC2(Cn3ccnc3)COC(c3ccc(-c4ccsc4)cc3)=N2)c1 (stereo not drawn) | > 64 µg/mL | > 64 µg/mL | > 64 µg/mL | > 64 µg/mL | > 64 µg/mL | > 64 µg/mL | > 64 µg/mL | > 64 µg/mL
2 | c1ccc(CC2(Cn3ccnc3)COC(c3noc4c3CCc3ccccc3-4)=N2)cc1 (stereo not drawn) | 16 µg/mL (≈ 39 µM) | 32 µg/mL (≈ 78 µM) | 32 µg/mL (≈ 78 µM) | > 64 µg/mL | > 64 µg/mL | 16 µg/mL (≈ 39 µM) | > 64 µg/mL | > 64 µg/mL
3 | FC(F)(F)c1ccccc1CC1(Cn2ccnc2)COC(c2ccc(-c3ccsc3)cc2)=N1 (stereo not drawn) | 0.125 µg/mL (≈ 0.267 µM) | 8 µg/mL (≈ 17.1 µM) | 16 µg/mL (≈ 34.2 µM) | > 64 µg/mL | > 64 µg/mL | 16 µg/mL (≈ 34.2 µM) | > 64 µg/mL | 32 µg/mL (≈ 68.4 µM)
4 | Brc1ccc(C2=NC(Cc3ccccc3)(Cn3ccnc3)CO2)cc1 (stereo not drawn) | > 64 µg/mL | > 64 µg/mL | > 64 µg/mL | 4 µg/mL (≈ 10.1 µM) | > 64 µg/mL | > 64 µg/mL | > 64 µg/mL | > 64 µg/mL
5 | Fc1cc(F)cc(CC2(Cn3ccnc3)COC(c3ccc(-c4ccsc4)cc3)=N2)c1 (stereo not drawn) | > 64 µg/mL | > 64 µg/mL | > 64 µg/mL | > 64 µg/mL | > 64 µg/mL | > 64 µg/mL | > 64 µg/mL | > 64 µg/mL
6 | Clc1ccc(CC2(Cn3ccnc3)COC(c3ccc(-c4ccsc4)cc3)=N2)c(Cl)c1 (stereo not drawn) | > 64 µg/mL | > 64 µg/mL | > 64 µg/mL | > 64 µg/mL | > 64 µg/mL | > 64 µg/mL | > 64 µg/mL | > 64 µg/mL
7 | c1ccc(CC2(Cn3ccnc3)COC(c3cc4ccccc4s3)=N2)cc1 (stereo not drawn) | > 64 µg/mL | > 64 µg/mL | > 64 µg/mL | 2 µg/mL (≈ 5.36 µM) | > 64 µg/mL | > 64 µg/mL | > 64 µg/mL | > 64 µg/mL
8 | Fc1cccc(F)c1CC1(Cn2cnnn2)COC(c2ccc(-c3ccsc3)cc2)=N1 (stereo not drawn) | 16 µg/mL (≈ 36.6 µM) | 16 µg/mL (≈ 36.6 µM) | > 64 µg/mL | > 64 µg/mL | > 64 µg/mL | > 64 µg/mL | > 64 µg/mL | > 64 µg/mL
9 | c1ccc(CC2(Cn3ccnc3)COC(c3cc4ccccc4o3)=N2)cc1 (stereo not drawn) | > 64 µg/mL | > 64 µg/mL | 8 µg/mL (≈ 22.4 µM) | > 64 µg/mL | > 64 µg/mL | > 64 µg/mL | > 64 µg/mL | > 64 µg/mL
10 | Cc1ccc(CC2(Cn3ccnc3)COC(c3ccc(-c4ccsc4)cc3)=N2)cc1 (stereo not drawn) | > 64 µg/mL | > 64 µg/mL | > 64 µg/mL | > 64 µg/mL | > 64 µg/mL | > 64 µg/mL | > 64 µg/mL | > 64 µg/mL
11 | c1ccc(CC2(Cn3ccnc3)COC(c3cc(-c4ccccc4)on3)=N2)cc1 (stereo not drawn) | > 64 µg/mL | > 64 µg/mL | > 64 µg/mL | 4 µg/mL (≈ 10.4 µM) | > 64 µg/mL | > 64 µg/mL | > 64 µg/mL | 2 µg/mL (≈ 5.2 µM)
12 | c1ccc(CC2(Cn3ccnc3)COC(c3ccc4c(c3)OCO4)=N2)cc1 (stereo not drawn) | > 64 µg/mL | > 64 µg/mL | > 64 µg/mL | > 64 µg/mL | > 64 µg/mL | > 64 µg/mL | > 64 µg/mL | > 64 µg/mL
13 | Fc1cccc(CC2(Cn3ccnc3)COC(c3ccc(-c4ccsc4)cc3)=N2)c1 (stereo not drawn) | > 64 µg/mL | > 64 µg/mL | > 64 µg/mL | > 64 µg/mL | > 64 µg/mL | > 64 µg/mL | 1 µg/mL (≈ 2.4 µM) | > 64 µg/mL
14 | FC(F)(F)c1ccc(CC2(Cn3ccnc3)COC(c3ccc(-c4ccsc4)cc3)=N2)cc1 (stereo not drawn) | > 64 µg/mL | > 64 µg/mL | > 64 µg/mL | > 64 µg/mL | > 64 µg/mL | > 64 µg/mL | > 64 µg/mL | > 64 µg/mL
15 | CC(C)(C)c1ccc(CC2(Cn3ccnc3)COC(c3ccc(-c4ccsc4)cc3)=N2)cc1 (stereo not drawn) | > 64 µg/mL | > 64 µg/mL | > 64 µg/mL | > 64 µg/mL | > 64 µg/mL | > 64 µg/mL | > 64 µg/mL | > 64 µg/mL
16 | c1ccc(CC2(Cn3ccnc3)COC(c3ccc(-c4cncnc4)cc3)=N2)cc1 (stereo not drawn) | > 64 µg/mL | > 64 µg/mL | > 64 µg/mL | > 64 µg/mL | > 64 µg/mL | > 64 µg/mL | > 64 µg/mL | > 64 µg/mL
